Reference: paper PMC10726357, “New Genetically Engineered Derivatives of Antibacterial Darobactins Underpin Their Potential for Antibiotic Development” (Journal of Medicinal Chemistry, 2023)
Values after ≈ are worked out from the molar mass of the structure shown. Like-named read-outs stand apart in the source and are kept apart here.

Assays:
A. baumannii ATCC 17978 = format: cell-based, Acinetobacter baumannii
Experimental: (§1) The antibacterial activity of novel darobactins was determined by the evaluation of the minimum inhibitory concentration (MIC) as previously described for crude extracts and for pure darobactin analogues.[12]

A. baumannii DSM-30008 = format: cell-based, Acinetobacter baumannii; conditions: DSM-30008
Experimental: as §1

A. baumannii NCTC 13301 = format: cell-based, Acinetobacter baumannii
Experimental: as §1

K. pneumoniae DSM-30104 = format: cell-based, Klebsiella pneumoniae; conditions: DSM-30104
Experimental: as §1

P. aeruginosa PA01 = format: cell-based, Pseudomonas aeruginosa
Experimental: as §1

[1] = system: P. aeruginosa PA14 DSM 19882; format: cell-based, Pseudomonas aeruginosa
Experimental: as §1

E. coli ATCC25922 = format: cell-based, Escherichia coli; conditions: ATCC25922
Experimental: as §1

[2] = biological target: T1, EcBamA (E. coli BamA barrel domain) (Escherichia coli, UniProt P0A940, C690S/C700S); experiment: Microscale thermophoresis (MST) KD determination; format: binding
T1 construct: The E. coli BamA barrel domain (BamA-β) (residues 421–810, C690S, C700S); made in house
Experimental: As an alternative to the previously published methods using isothermal titration calorimetry (ITC), we established a KD determination assay using microscale thermophoresis (MST) to enable higher throughput.
Microscale thermophoresis (MST) (serial no. 201709-BR-N024, Monolith NT.115 Micro Scale Thermophoresis, NanoTemper Technologies GmbH) was performed according to the standard protocol from the manufacturer NanoTemper Technologies GmbH using a Monolith His-Tag Labeling Kit RED-tris-NTA second-generation kit. The buffer used was HEPES (50 mM), pH 7.6, MgCl2 (5 mM), and Tween (0.05%). […] A 1:1 dilution of the ligand over 16 samples was performed using a stock of ligand (in water) diluted in HEPES buffer. Nonhydrophobic capillary tubes were used. A pretest to check for the labeling and compound fluorescence was performed for every sample followed by a binding affinity (KD) determination. Each sample was measured after 15 min of incubation at RT and analyzed in MO Control version 1.6.

[3] = for liver microsomes Clint / liver microsomes t1/2: 1 μM; for liver microsomes t1/2: 120 min incubation
Experimental: The metabolic stability of testosterone, verapamil, and ketoconazole was determined in parallel to confirm the enzymatic activity of mouse/rat liver microsomes; for human liver microsomes, testosterone, diclofenac, and propranolol were used. Incubation was stopped after defined time points by precipitation of aliquots of enzymes with 2 volumes of cold acetonitrile containing an internal standard (15 nM diphenhydramine). Samples were stored on ice until the end of the incubation, and precipitated protein was removed by centrifugation (15 min, 4 °C, and 4000g). The concentration of the remaining test compound at the different time points was analyzed by HPLC-MS/MS (TSQ Altis Plus, Thermo Fisher, Dreieich, Germany) and used to determine the half-life (t1/2).

[4] = system: Acinetobacter baumannii DSM-30007; format: cell-based
Experimental: as §1

[5] = system: P. aeruginosa 83979 (MDR clinical isolate); experiment: microbe, parasite or virus in culture; conditions: for MIC: Pseudomonas aeruginosa
Experimental: as §1

[6] = system: P. aeruginosa 84389 (MDR clinical isolate); experiment: microbe, parasite or virus in culture
Experimental: as §1

[7] = human plasma; 1 μM
Experimental: (§2) To determine stability in plasma, the compound (1 μM) was incubated with pooled CD-1 mouse, Wistar rat, or human plasma (Neo Biotech, Nanterre, France). […] Samples were stored on ice until the end of the incubation, and precipitated protein was removed by centrifugation (15 min, 4 °C, 4000g, and 2 centrifugation steps). The concentration of the remaining test compound at the different time points was analyzed by HPLC-MS/MS (TSQ Quantum Access MAX, Thermo Fisher, Dreieich, Germany). The plasma stability of procaine, propantheline, and diltiazem was determined in parallel to confirm the enzymatic activity.

[8] = rat (Wistar) plasma; 1 μM
Experimental: as §2

Gram-negative bacteria = conditions: result in words; cited from earlier work

Molecule	MIC A. baumannii [DSM-30008] (A. baumannii DSM-30008) [µg/mL]	MIC K. pneumoniae [DSM-30104] (K. pneumoniae DSM-30104) [µg/mL]	MIC P. aeruginosa [PA01] (P. aeruginosa PA01) [µg/mL]	MIC E. coli [ATCC25922] (E. coli ATCC25922) [µg/mL]	Kd [2] [µM]	IC50 HepG2 (HepG2) [µg/mL]	published antibacterial activity (Gram-negative bacteria)	other results
N=C(N)NCCC[C@H](NC(=O)[C@H]1NC(=O)[C@H](CO)NC(=O)[C@H]2NC(=O)[C@H](CCC(N)=O)NC(=O)[C@@H](N)Cc3c[nH]c4c(cccc34)O[C@@H]2c2c[nH]c3cc(ccc23)[C@@H]1CCCN)C(=O)N[C@@H](Cc1c[nH]c2ccccc12)C(=O)O [D69, darobactin 69]	0.5 (≈ 0.459 µM)	4 (≈ 3.68 µM)	1 (≈ 0.919 µM)	1 (≈ 0.919 µM)	1.4 ± 0.4	> 37		MIC A. baumannii ATCC 17978 (A. baumannii ATCC 17978): 16 μg mL^–1; MIC A. baumannii DSM-30008 (A. baumannii DSM-30008): 0.5 μg mL^–1; MIC A. baumannii NCTC 13301 (A. baumannii NCTC 13301): 8–16 μg mL^–1; MIC Pseudomonas aeruginosa PA01 DSM 22644 (P. aeruginosa PA01): 1 μg mL^–1; MIC P. aeruginosa PA14 DSM 19882 [1]: 16 μg mL^–1; liver microsomes Clint ([3]; human): < 11.6 µL/min/mg; liver microsomes t1/2 ([3]; human): > 2 h; liver microsomes Clint ([3]; mouse C57BL/6): < 11.6 µL/min/mg; liver microsomes t1/2 ([3]; mouse C57BL/6): > 2 h; metabolism in murine liver microsomes ([3]; over 2 h): not metabolized; liver microsomes Clint ([3]; rat (Wistar)): < 11.6 µL/min/mg; liver microsomes t1/2 ([3]; rat (Wistar)): > 2 h; MIC Acinetobacter baumannii DSM-30007 [4]: 2 μg mL^–1; MIC P. aeruginosa 83979 ([5]; 83979 (MDR clinical isolate)): 8–16 μg mL^–1; MIC P. aeruginosa 84389 ([6]; 84389 (MDR clinical isolate)): 16–32 μg mL^–1; plasma t1/2 (mouse CD-1 plasma, 1 μM): >4 h; plasma stability (degradation) (over 4 h): no degradation; plasma t1/2 [7]: >4 h; plasma t1/2 [8]: >4 h
N=C(N)NCC[C@H]1c2ccc3c(c[nH]c3c2)[C@H]2Oc3cccc4c(c[nH]c34)C[C@H](N)C(=O)N[C@@H](CC(N)=O)C(=O)N[C@@H]2C(=O)N[C@@H](CO)C(=O)N[C@@H]1C(=O)N[C@@H](CO)C(=O)N[C@@H](Cc1ccccc1)C(=O)O [DD, darobactin D, reference compound]	4 to 8	8 to 16	2 (≈ 2.01 µM)	1 (≈ 1.01 µM)			inactive	
C[C@@H](O)[C@@H]1NC(=O)[C@H]2NC(=O)[C@H](CO)NC(=O)[C@@H](N)Cc3c[nH]c4c(cccc34)O[C@@H]2c2c[nH]c3cc(ccc23)[C@H](CCCN)[C@@H](C(=O)N[C@@H](CCCNC(=N)N)C(=O)N[C@@H](Cc2c[nH]c3ccccc23)C(=O)O)NC1=O [D64]	0.5 (≈ 0.471 µM)	16 (≈ 15.1 µM)	2 (≈ 1.88 µM)	4 (≈ 3.77 µM)	5.1 ± 0.7	> 37		
darobactin E (WSWSKSF) [DE, native darobactin analogue, core peptide WSWSKSF]							rather inactive	
C[C@@H](O)[C@@H]1NC(=O)[C@H]2NC(=O)[C@H](CC(N)=O)NC(=O)[C@@H](N)Cc3c[nH]c4c(cccc34)O[C@@H]2c2c[nH]c3cc(ccc23)[C@H](CCNC(=N)N)[C@@H](C(=O)N[C@@H](CCCNC(=N)N)C(=O)N[C@@H](Cc2c[nH]c3ccccc23)C(=O)O)NC1=O [D39]	0.5 to 2	4 to 8	2 (≈ 1.79 µM)	4 to 8	10.9 ± 3.5	>37		
C[C@@H](O)[C@H]1C(=O)N2C(C(=O)O)=C(S[C@@H]3CN[C@H](C(=O)N(C)C)C3)[C@H](C)[C@H]12 [meropenem]								MIC ([5]; BAL, read-out: resistance profile, MIC, P. aeroginosa 83979): > 16 µg/mL; MIC ([5]; read-out: MIC P. aeruginosa 83979): 16 µg/mL (≈ 41.7 µM); MIC ([6]; Pseudomonas aeruginosa, read-out: MIC P. aeruginosa 84389): 16 µg/mL (≈ 41.7 µM)
